Assay results from US20050107611A1, “Pyrazolyl-substituted triazoloquinoxalines” (priority 2001, published 2005).
pKi: −log10 of the molar value.

What was measured:
A1 adenosine receptor = target: T1, A1 adenosine receptor (Rattus norvegicus, UniProt P25099); test: Radioligand binding with [3H]CCPA on A1-adenosine receptors, rat brain cortex membranes; design: tissue Pel Freez Company (Rogers, Ark., USA); host or cells: rat brain cerebral cortex membranes; conditions: for pKi: Table 2, [3H]CCPA, read-out: A1 K1
T1 sequence (P25099 1-326): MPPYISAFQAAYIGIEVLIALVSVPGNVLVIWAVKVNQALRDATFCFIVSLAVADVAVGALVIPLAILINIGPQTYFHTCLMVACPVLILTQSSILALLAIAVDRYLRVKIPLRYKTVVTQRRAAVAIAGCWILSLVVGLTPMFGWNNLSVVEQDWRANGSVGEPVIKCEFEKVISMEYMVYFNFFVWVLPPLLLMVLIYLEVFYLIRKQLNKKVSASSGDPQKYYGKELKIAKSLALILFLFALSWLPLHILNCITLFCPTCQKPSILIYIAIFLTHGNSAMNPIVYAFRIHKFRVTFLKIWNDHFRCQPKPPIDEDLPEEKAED
Text: (§1) The data of the biological tests that are cited below results from radioligand-binding assays on A1, A2A, A2B and A3 adenosine receptors (ARs).
(§2) The following selective radioligands are used in the biological tests: • [^3H]CCPA (for A1 ARs) [Klotz et al., Naunyn-Schmiedeberg's Arch. Pharmacol., 340, 679 (1989)] • [^3]MSX-2 (for A2A ARs) [Muiller et al., Eur. J. Pharm. Sci., 10, 259 (2000)] • [^3H]ZM241385 (for A2B ARs_[X.-D. Ji, K. A. Jacobson, Drug Des. Discov., 16, 217 (1999)] • [^3H]PSB-11 (new antagonistic radioligand for human A3 ARs) [M. Dieckmann, M. Thorand, V. Ozola, C. E. Muiller, in Vorbereitung [Preparation] (2001)]. • [^125I]AB-MECA (for rat-A3 ARs) [Olah et al., Mol. Pharmacol., 45, 978 (1994)]. Description of the Assays That are Used for Testing Substances Production of Tissue Preparations Made from Rat Brains
For the preparations, deep-frozen rat brains of the Pel Freez Company (Rogers, Ark., USA) are used. The rat brains are thawed in 0.32 M saccharose solution, the cortex is cut off, and the striata are prepared outside.
(§3) The cell decomposing of the cerebral cortex is carried out with a glass-Teflon homogenizer (stages 5-6, 10 seconds) in 0.32 M saccharose solution. The membranes are purified over various centrifuging steps. With centrifuging at 600 g, 4° C., for 10 minutes, a large amount of cell debris is separated via the P1 fraction, and the supernatant (P2 fraction) is further worked up: in the subsequent three centrifuging steps (35,000 g; 4° C.; 60 minutes), a pellet is produced that is resuspended in 50 mmol of TRIS buffer, pH 7.4 with the Ultraturrax (stages 3-4, 3 seconds); the respective supernatant is discarded. The striata are added to cold TRIS buffer, homogenized with the Ultraturrax in stages 3 to 4-(3 seconds) and then centrifuged at 35,000 g, 4° C., for 20 minutes. The supernatant is discarded, and the pellet is resuspended in 50 mmol of TRIS buffer (50 mmol, pH 7.4). The washing process is repeated twice more. The membrane preparations are stored at −80° C. and are held for several months. The cerebral cortex membrane preparation is used for A1-radioligand binding studies, and the striatum is used for A2A-radiologiand binding studies.
(§4) The test substances are dissolved in DMSO to 10 mmol. The final concentration of DMSO in the assay is 2.5% for A1- and A2A-adenosine receptor assays and 1-2% for A2B- and A3-assays. Dilution series of the test substances are produced from the stock solution. Five to eight different test concentrations, which comprise 3 orders of magnitude (e.g., 1 nm to 1000 nm), are used.
Radioligand Binding Studies with [^3H]CCPA on A1-Adenosine Receptors:
The mixture is incubated for 90 minutes in an oscillating water bath at 23° C. Then, it is filtered off with a Brandel cell-harvester and washed twice more with ice-cooled TRIS buffer, 50 mmol, pH 7.4 (3 ml). The filter plates are conveyed in scintillation vials, doused with 2.5 ml of Ultima Gold Scintillation cocktail and incubated for at least 6 hours before they are measured in a scintillation counter.
(§5) The mean value is calculated from three independent experiments. IC50 and K, values are obtained from the Cheng-Prusoff equation, the concentration and the KD value of the radioligand. For calculation, the program GraphPadPrism™, Version 3.0 (GraphPad, San Diego, Calif., USA), was used.

A2A adenosine receptor = A2A adenosine receptor (Rattus norvegicus, UniProt P30543); test: Receptor binding assay with [3H]MSX-2 on A2A-adenosine receptors; design: tissue Pel Freez Company (Rogers, Ark., USA); host or cells: rat brain striatum membranes; conditions: for pKi: Table 2, [3H]MSX-2, read-out: A2A K1
Text: as §1, §2, §3, §4
Receptor Binding Assay with [^3H]MSX-2 on A2A-Adenosine Receptors:
• 25 μl of DMSO, NECA (800 μmol) or test substance dilutions • 775 μl of TRIS buffer (for production, see above) • 100 μl of [^3H]MSX-2 (final concentration 1 nmol; KD value 8 nmol) • 100 μl of rat-striatum-membrane preparation or preparation of CHO cells, which express the human A2A receptor, incubated with 0.12 IE adenosine-deaminase (protein concentration: 25-75 μg/ml) • 1000 μl of final volume
The assay is performed according to the instructions of the receptor-binding assay with [^3H]CCPA with consideration of the amounts and solutions that are listed above. The incubation time is 30 minutes at 23° C. in an oscillating water bath. The glass fiber filter is introduced 30 minutes before use in 0.5% PEI solution.
as §5

Sequence of A2A adenosine receptor (P30543 whole entry): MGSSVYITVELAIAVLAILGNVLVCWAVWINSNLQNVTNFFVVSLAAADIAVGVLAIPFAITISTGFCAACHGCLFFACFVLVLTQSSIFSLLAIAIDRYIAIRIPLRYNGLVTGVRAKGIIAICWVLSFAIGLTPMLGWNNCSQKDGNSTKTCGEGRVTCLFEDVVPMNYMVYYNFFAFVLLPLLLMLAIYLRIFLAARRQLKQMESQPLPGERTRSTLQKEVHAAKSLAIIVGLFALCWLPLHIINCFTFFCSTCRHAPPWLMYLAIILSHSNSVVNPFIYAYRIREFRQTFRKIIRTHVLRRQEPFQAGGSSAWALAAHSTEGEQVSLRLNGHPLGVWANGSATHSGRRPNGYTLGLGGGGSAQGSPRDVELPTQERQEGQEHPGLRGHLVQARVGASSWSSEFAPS

Row | Compound | pKi (A1 adenosine receptor) | pKi (A2A adenosine receptor) | A2A % inhib. @ 10 μmol (A2A adenosine receptor) | A1 % inhib. @ 10 μmol (A1 adenosine receptor)
1 | 4-(chloropyrazolyl)-1-(3-phenylpropyl)-[1,2,4-]triazolo[4,3-a]quinoxaline [Y = C—CH2—CH2—CH2-Ph, R5 = H, R6 = Cl] | 8.22 | < 5.00 | (6%) | 
2 | COc1ccc2c(c1)nc(-c1cc(Cl)[nH]n1)c1nncn12 [Y = C—H, R3 = OCH3, R5 = H, R6 = Cl, 4-[3(5)-Chloro-1H-pyrazol-5(3)-yl]-7-methoxy-[1,2,4]triazolo[4,3-a]-quinoxaline] | < 5.00 | < 5.00 | (1%) | (13%)
3 | Clc1cc(-c2nc3ccccc3n3cnnc23)[nH]n1 [Y = C—H, R5 = H, R6 = Cl] | < 5.00 | < 5.00 | (21%) | (35%)

Now from value to compound, other results behind:

Row | pKi (A1 adenosine receptor) | pKi (A2A adenosine receptor) | Compound | A2A % inhib. @ 10 μmol (A2A adenosine receptor) | A1 % inhib. @ 10 μmol (A1 adenosine receptor)
4 | 6.05 | 5.30 | COc1ccc2c(c1)nc(-c1cc(Cl)n[nH]1)c1nnc(Cc3cccs3)n12 [4-[3(5)-Chloro-1H-pyrazol-5(3)-yl]-7-methoxy-1-(2-thienylmethyl)-[1,2,4]triazolo[4,3-a]-quinoxaline] |  | 
5 | 6.49 | 5.90 | Clc1cc(-c2nc3ccccc3n3c(-c4ccoc4)nnc23)n[nH]1 [Y = C-(3-Furyl), R5 = H, R6 = Cl] |  | 
6 | 6.68 | 5.06 | Cn1nc(-c2nc3ccccc3n3c(Cc4cccs4)nnc23)cc1Cl [Y = C—CH2-(2-Thienyl), R5 = CH3, R6 = Cl, 4-(5-Chloro-1H-1-methyl-pyrazol-3-yl)-1-(2-thienylmethyl)-[1,2,4]triazolo[4,3-a]-quinoxaline] |  | 
7 | 6.17 | 5.21 | Clc1cc(-c2nc3ccccc3n3nnnc23)n[nH]1 [Y = N, R5 = H, R6 = Cl, 4-[3(5)-Chloro-1H-pyrazol-5(3)-yl]tetrazolo[1,5-a]quinoxaline] |  | 
